Data as given in the supplement of paper PMC9663587.

Assays:
Tivantinib/ARQ197 = compound: O=C1NC(=O)[C@@H](c2cn3c4c(cccc24)CCC3)[C@@H]1c1c[nH]c2ccccc12 [Tivantinib/ARQ197]; assay: GR value, 72 h; higher = faster growth (1 = untreated, <0 = killing);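 note: breast cancer and non-malignant breast epithelial lines, nine half-log doses, viable cells counted by Hoechst and LIVE/DEAD dye imaging versus time-zero plates and DMSO controls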
[1] = compound: CC(=O)Nc1cccc(-n2c(=O)n(C3CC3)c(=O)c3c(Nc4ccc(I)cc4F)n(C)c(=O)c(C)c32)c1; assay: as above
Taselisib/GDC0032 = compound: Cc1nc(-c2cn3c(n2)-c2ccc(-c4cnn(C(C)(C)C(N)=O)c4)cc2OCC3)n(C(C)C)n1 [Taselisib/GDC0032]; assay: as above
Rucaparib = compound: CNCc1ccc(-c2[nH]c3cc(F)cc4c3c2CCNC4=O)cc1 [Rucaparib]; assay: as above
Buparlisib/NVP-BKM120 = compound: Nc1cc(C(F)(F)F)c(-c2cc(N3CCOCC3)nc(N3CCOCC3)n2)cn1 [Buparlisib/NVP-BKM120]; assay: increase in dead-cell fraction, 72 h; higher = more death;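 note: breast cancer cell lines in 384-well plates, stained with Hoechst plus LIVE/DEAD far red dye and imaged, cells above an LDR intensity threshold counted dead, Hoechst-negative corpses included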
[2] = compound: COc1cccc(OCCCN)c1-c1cc(Nc2cnc(C#N)cn2)n[nH]1; assay: as above
TGX221 = compound: CC1=CN2C(=O)C=C(N=C2C(=C1)C(C)NC3=CC=CC=C3)N4CCOCC4 [TGX221]; assay: as above
AZD1775 = compound: C=CCn1c(=O)c2cnc(Nc3ccc(N4CCN(C)CC4)cc3)nc2n1-c1cccc(C(C)(C)O)n1 [AZD1775]; assay: as above
INK128/MLN0128 = compound: CC(C)n1nc(-c2ccc3oc(N)nc3c2)c2c(N)ncnc21 [INK128/MLN0128]; assay: as above
AZD7762 = compound: NC(=O)Nc1cc(-c2cccc(F)c2)sc1C(=O)N[C@H]1CCCNC1 [AZD7762]; assay: as above
[3] = compound: Cc1nn(C)c(COc2ccc(N3CCN(S(=O)(=O)N(C)C)CC3)cc2)c1-c1cccc2c(CCCOc3cccc4ccccc34)c(C(=O)O)n(CCN3CCOCC3)c12; assay: as above
FMF-03-146-1 = compound: CN1CCN(CC1)C2=CC(=C(C=C2)NC3=NC=C4C(=N3)N(C5=CC=CC=C5C(=O)N4CC(F)(F)F)C)OC [FMF-03-146-1]; assay: as above

In the case of AU565, the GR value (Tivantinib/ARQ197; 0.001 µM) is reported as 1.08 GR, the GR value (Tivantinib/ARQ197; 0.003162 µM) is reported as 1.04 GR and the GR value (Tivantinib/ARQ197; 0.01 µM) is reported as 1.1 GR. For the same cell line, the GR value (Tivantinib/ARQ197; 0.03162 µM) was 1.03 GR, the GR value (Tivantinib/ARQ197; 0.1 µM) was 0.841 GR and the GR value (Tivantinib/ARQ197; 0.3162 µM) was 0.191 GR. The GR value (Tivantinib/ARQ197; 1 µM) was -0.542 GR, the GR value (Tivantinib/ARQ197; 3.162 µM) was -0.468 GR and the GR value (Tivantinib/ARQ197; 10 µM) was -0.479 GR. For the same cell line, the GR value ([1]; 0.0001 µM) was 1.05 GR, the GR value ([1]; 0.0003162 µM) was 0.96 GR and the GR value ([1]; 0.001 µM) was 1.08 GR. It also gave a GR value ([1]; 0.003162 µM) of 1.05 GR, a GR value ([1]; 0.01 µM) of 1.02 GR and a GR value ([1]; 0.03162 µM) of 0.968 GR. It also gave a GR value ([1]; 0.1 µM) of 1.08 GR, a GR value ([1]; 0.3162 µM) of 1.02 GR and a GR value ([1]; 1 µM) of 1.01 GR. For the same cell line, the GR value (Taselisib/GDC0032; 0.001 µM) was 0.728 GR, the GR value (Taselisib/GDC0032; 0.003162 µM) was 0.58 GR and the GR value (Taselisib/GDC0032; 0.01 µM) was 0.208 GR. For the same cell line, the GR value (Taselisib/GDC0032; 0.03162 µM) was -0.0424 GR, the GR value (Taselisib/GDC0032; 0.1 µM) was -0.111 GR and the GR value (Taselisib/GDC0032; 0.3162 µM) was -0.171 GR. For the same cell line, the GR value (Taselisib/GDC0032; 1 µM) was -0.209 GR, the GR value (Taselisib/GDC0032; 3.162 µM) was -0.225 GR and the GR value (Taselisib/GDC0032; 10 µM) was -0.538 GR. The GR value (Rucaparib; 0.001 µM) was 0.952 GR, the GR value (Rucaparib; 0.003162 µM) was 1.09 GR and the GR value (Rucaparib; 0.01 µM) was 0.804 GR. For the same cell line, the GR value (Rucaparib; 0.03162 µM) was 0.916 GR, the GR value (Rucaparib; 0.1 µM) was 0.925 GR and the GR value (Rucaparib; 0.3162 µM) was 0.845 GR. For the same cell line, the GR value (Rucaparib; 1 µM) was 1.01 GR, the GR value (Rucaparib; 3.162 µM) was 0.932 GR and the GR value (Rucaparib; 10 µM) was 0.714 GR. The “increase in dead-cell fraction” value (Buparlisib/NVP-BKM120; 0.001 µM) was -0.0006, the “increase in dead-cell fraction” value (Buparlisib/NVP-BKM120; 0.003162 µM) was 0.0058 and the “increase in dead-cell fraction” value (Buparlisib/NVP-BKM120; 0.01 µM) was 0.0024. The “increase in dead-cell fraction” value (Buparlisib/NVP-BKM120; 0.03162 µM) was 0.0055, the “increase in dead-cell fraction” value (Buparlisib/NVP-BKM120; 0.1 µM) was 0.0187 and the “increase in dead-cell fraction” value (Buparlisib/NVP-BKM120; 0.3162 µM) was 0.043. For the same cell line, the “increase in dead-cell fraction” value (Buparlisib/NVP-BKM120; 1 µM) was 0.189, the “increase in dead-cell fraction” value (Buparlisib/NVP-BKM120; 3.162 µM) was 0.273 and the “increase in dead-cell fraction” value (Buparlisib/NVP-BKM120; 10 µM) was 0.227. The “increase in dead-cell fraction” value ([2]; 10 pM) was -0.002, the “increase in dead-cell fraction” value ([2]; 31.6 pM) was -0.0013 and the “increase in dead-cell fraction” value ([2]; 0.0001 µM) was -0.0035. The “increase in dead-cell fraction” value ([2]; 0.0003162 µM) was -0.0022, the “increase in dead-cell fraction” value ([2]; 0.001 µM) was 0.139 and the “increase in dead-cell fraction” value ([2]; 0.003162 µM) was 0.168. The “increase in dead-cell fraction” value ([2]; 0.01 µM) was 0.194, the “increase in dead-cell fraction” value ([2]; 0.03162 µM) was 0.187 and the “increase in dead-cell fraction” value ([2]; 0.1 µM) was 0.211. For the same cell line, the “increase in dead-cell fraction” value (TGX221; 0.001 µM) was 0, the “increase in dead-cell fraction” value (TGX221; 0.003162 µM) was -0.0043 and the “increase in dead-cell fraction” value (TGX221; 0.01 µM) was -0.0042. The “increase in dead-cell fraction” value (TGX221; 0.03162 µM) was -0.0019, the “increase in dead-cell fraction” value (TGX221; 0.1 µM) was 0.0014 and the “increase in dead-cell fraction” value (TGX221; 0.3162 µM) was 0.003. For the same cell line, the “increase in dead-cell fraction” value (TGX221; 1 µM) was 0.0069, the “increase in dead-cell fraction” value (TGX221; 3.162 µM) was 0.0045 and the “increase in dead-cell fraction” value (TGX221; 10 µM) was 0.0099. The “increase in dead-cell fraction” value (AZD1775; 0.001 µM) was 0.0224, the “increase in dead-cell fraction” value (AZD1775; 0.003162 µM) was 0.0098 and the “increase in dead-cell fraction” value (AZD1775; 0.01 µM) was 0.0075. The “increase in dead-cell fraction” value (AZD1775; 0.03162 µM) was 0.029, the “increase in dead-cell fraction” value (AZD1775; 0.1 µM) was 0.0256 and the “increase in dead-cell fraction” value (AZD1775; 0.3162 µM) was 0.0481. The “increase in dead-cell fraction” value (AZD1775; 1 µM) was 0.119, the “increase in dead-cell fraction” value (AZD1775; 3.162 µM) was 0.184 and the “increase in dead-cell fraction” value (AZD1775; 10 µM) was 0.472. For the same cell line, the “increase in dead-cell fraction” value (INK128/MLN0128; 0.0003162 µM) was 0.0039, the “increase in dead-cell fraction” value (INK128/MLN0128; 0.001 µM) was 0.0034 and the “increase in dead-cell fraction” value (INK128/MLN0128; 0.003162 µM) was 0.0155. For the same cell line, the “increase in dead-cell fraction” value (INK128/MLN0128; 0.01 µM) was 0.0233, the “increase in dead-cell fraction” value (INK128/MLN0128; 0.03162 µM) was 0.0367 and the “increase in dead-cell fraction” value (INK128/MLN0128; 0.1 µM) was 0.0543. The “increase in dead-cell fraction” value (INK128/MLN0128; 0.3162 µM) was 0.0671, the “increase in dead-cell fraction” value (INK128/MLN0128; 1 µM) was 0.084 and the “increase in dead-cell fraction” value (INK128/MLN0128; 3.162 µM) was 0.244. The “increase in dead-cell fraction” value (AZD7762; 0.001 µM) was 0.0024, the “increase in dead-cell fraction” value (AZD7762; 0.003162 µM) was -0.0005 and the “increase in dead-cell fraction” value (AZD7762; 0.01 µM) was -0.0036. The “increase in dead-cell fraction” value (AZD7762; 0.03162 µM) was -0.0044, the “increase in dead-cell fraction” value (AZD7762; 0.1 µM) was -0.0002 and the “increase in dead-cell fraction” value (AZD7762; 0.3162 µM) was 0.0011. The “increase in dead-cell fraction” value (AZD7762; 1 µM) was 0.0228, the “increase in dead-cell fraction” value (AZD7762; 3.162 µM) was 0.106 and the “increase in dead-cell fraction” value (AZD7762; 10 µM) was 0.232. For the same cell line, the “increase in dead-cell fraction” value ([3]; 0.001 µM) was 0.0054, the “increase in dead-cell fraction” value ([3]; 0.003162 µM) was 0.0034 and the “increase in dead-cell fraction” value ([3]; 0.01 µM) was 0.0061. The “increase in dead-cell fraction” value ([3]; 0.03162 µM) was 0.0001, the “increase in dead-cell fraction” value ([3]; 0.1 µM) was 0.0007 and the “increase in dead-cell fraction” value ([3]; 0.3162 µM) was -0.0037. The “increase in dead-cell fraction” value ([3]; 1 µM) was 0.0003, the “increase in dead-cell fraction” value ([3]; 3.162 µM) was 0.0012 and the “increase in dead-cell fraction” value ([3]; 10 µM) was 0.0111. For the same cell line, the “increase in dead-cell fraction” value (FMF-03-146-1; 0.001 µM) was -0.0004, the “increase in dead-cell fraction” value (FMF-03-146-1; 0.003162 µM) was -0.0059 and the “increase in dead-cell fraction” value (FMF-03-146-1; 0.01 µM) was -0.0077. For the same cell line, the “increase in dead-cell fraction” value (FMF-03-146-1; 0.03162 µM) was -0.0019, the “increase in dead-cell fraction” value (FMF-03-146-1; 0.1 µM) was -0.007 and the “increase in dead-cell fraction” value (FMF-03-146-1; 0.3162 µM) was 0.0094. The “increase in dead-cell fraction” value (FMF-03-146-1; 1 µM) was 0.0124, the “increase in dead-cell fraction” value (FMF-03-146-1; 3.162 µM) was -0.0094 and the “increase in dead-cell fraction” value (FMF-03-146-1; 10 µM) was 0.0136.
